Results taken from ChEMBL document CHEMBL3885881, “DrugMatrix”.

Organism: Rattus norvegicus
Experiment: DrugMatrix - Regimen: Daily Repeat
Type: toxicity, organism-based, Sprague-Dawley
Set-up: regimen Daily Repeat, gender Male, age 6-8 weeks
Conditions: in vivo, po, route oral GAVAGE, vehicle 100 % WATER; for ABSOLUTE BASOPHIL / ABSOLUTE EOSINOPHIL / ABSOLUTE LYMPHOCYTE / ABSOLUTE MONOCYTE / ABSOLUTE SEGMENTED NEUTROPHIL / BASOPHIL / EOSINOPHIL / ERYTHROCYTE COUNT / HEMATOCRIT / HEMOGLOBIN / LEUKOCYTE COUNT / LYMPHOCYTE / MEAN CORPUSCULAR HEMOGLOBIN / MEAN CORPUSCULAR HEMOGLOBIN CONCENTRATION / MEAN CORPUSCULAR VOLUME / MONOCYTE / NEUTROPHIL / NUCLEATED RED BLOOD CELLS / PLATELET COUNT: tissue Blood; for ALANINE AMINOTRANSFERASE / ALBUMIN / ALKALINE PHOSPHATASE / ASPARTATE AMINOTRANSFERASE / BLOOD UREA NITROGEN / CARBON DIOXIDE / CHLORIDE / CHOLESTEROL / CREATINE PHOSPHOKINASE / CREATININE / GLUCOSE / LACTATE DEHYDROGENASE / LIPASE / PHOSPHORUS / POTASSIUM / SODIUM / TOTAL BILIRUBIN / TOTAL PROTEIN / URIC ACID: tissue Plasma
[1] = 0 mg/kg, 72 h, dose level Control, time 3 day
[2] = 0 mg/kg, 120 h, dose level Control, time 5 day
[3] = 0.3 mg/kg, 72 h, dose level Low, time 3 day

Structure (SMILES): Clc1cccc(Cl)c1N=C1NCCN1 [CLONIDINE]
- ABSOLUTE BASOPHIL [1]: 0 CELLS/uL
- ABSOLUTE EOSINOPHIL [1]: 24 CELLS/uL
- ABSOLUTE LYMPHOCYTE [1]: 13105 CELLS/uL
- ABSOLUTE MONOCYTE [1]: 76 CELLS/uL
- ABSOLUTE SEGMENTED NEUTROPHIL [1]: 2145 CELLS/uL
- BASOPHIL [1]: 0%
- EOSINOPHIL [1]: 0.17%
- ERYTHROCYTE COUNT [1]: 5.81 x10E6/uL
- HEMATOCRIT [1]: 35.6%
- HEMOGLOBIN [1]: 13.72 G/DL
- LEUKOCYTE COUNT [1]: 15.35 x10E3/uL
- LYMPHOCYTE [1]: 85.5%
- MEAN CORPUSCULAR HEMOGLOBIN [1]: 23.62 pg
- MEAN CORPUSCULAR HEMOGLOBIN CONCENTRATION [1]: 38.55 G/DL
- MEAN CORPUSCULAR VOLUME [1]: 61.23 fL
- MONOCYTE [1]: 0.5%
- NEUTROPHIL [1]: 13.83%
- NUCLEATED RED BLOOD CELLS [1]: 0 /100WBC
- PLATELET COUNT [1]: 1189.83 x10E3/uL
- ALANINE AMINOTRANSFERASE [1]: 48.67 u/L
- ALBUMIN [1]: 4.27 G/DL
- ALKALINE PHOSPHATASE [1]: 335 u/L
- ASPARTATE AMINOTRANSFERASE [1]: 86.5 u/L
- BLOOD UREA NITROGEN [1]: 14.33 mg/dL
- CARBON DIOXIDE [1]: 29.17 mmol/L
- CHLORIDE [1]: 99.83 MEQ/L
- CHOLESTEROL [1]: 71.83 mg/dL
- CREATINE PHOSPHOKINASE [1]: 506.83 u/L
- CREATININE [1]: 0.18 mg/dL
- GLUCOSE [1]: 162.17 mg/dL
- LACTATE DEHYDROGENASE [1]: 264.5 u/L
- LIPASE [1]: 9.67 u/L
- PHOSPHORUS [1]: 11.92 mg/dL
- POTASSIUM [1]: 6.55 MEQ/L
- SODIUM [1]: 141.53 MEQ/L
- TOTAL BILIRUBIN [1]: 0.18 mg/dL
- TOTAL PROTEIN [1]: 5.87 G/DL
- URIC ACID [1]: 1.67 mg/dL
- ABSOLUTE BASOPHIL [2]: 0 CELLS/uL
- ABSOLUTE EOSINOPHIL [2]: 25.33 CELLS/uL
- ABSOLUTE LYMPHOCYTE [2]: 15680 CELLS/uL
- ABSOLUTE MONOCYTE [2]: 92.33 CELLS/uL
- ABSOLUTE SEGMENTED NEUTROPHIL [2]: 2102.33 CELLS/uL
- BASOPHIL [2]: 0%
- EOSINOPHIL [2]: 0.17%
- ERYTHROCYTE COUNT [2]: 6 x10E6/uL
- HEMATOCRIT [2]: 35.55%
- HEMOGLOBIN [2]: 14.12 G/DL
- LEUKOCYTE COUNT [2]: 17.9 x10E3/uL
- LYMPHOCYTE [2]: 87.33%
- MEAN CORPUSCULAR HEMOGLOBIN [2]: 23.65 pg
- MEAN CORPUSCULAR HEMOGLOBIN CONCENTRATION [2]: 39.77 G/DL
- MEAN CORPUSCULAR VOLUME [2]: 59.52 fL
- MONOCYTE [2]: 0.5%
- NEUTROPHIL [2]: 12%
- NUCLEATED RED BLOOD CELLS [2]: 0.17 /100WBC
- PLATELET COUNT [2]: 1325.67 x10E3/uL
- ALANINE AMINOTRANSFERASE [2]: 56.17 u/L
- ALBUMIN [2]: 4.23 G/DL
- ALKALINE PHOSPHATASE [2]: 371.5 u/L
- ASPARTATE AMINOTRANSFERASE [2]: 91 u/L
- BLOOD UREA NITROGEN [2]: 15.33 mg/dL
- CARBON DIOXIDE [2]: 27.67 mmol/L
- CHLORIDE [2]: 99.5 MEQ/L
- CHOLESTEROL [2]: 66.5 mg/dL
- CREATINE PHOSPHOKINASE [2]: 518.5 u/L
- CREATININE [2]: 0.18 mg/dL
- GLUCOSE [2]: 143.33 mg/dL
- LACTATE DEHYDROGENASE [2]: 238.83 u/L
- LIPASE [2]: 9.33 u/L
- PHOSPHORUS [2]: 10.68 mg/dL
- POTASSIUM [2]: 6.5 MEQ/L
- SODIUM [2]: 141.88 MEQ/L
- TOTAL BILIRUBIN [2]: 0.18 mg/dL
- TOTAL PROTEIN [2]: 6 G/DL
- URIC ACID [2]: 1.63 mg/dL
- ABSOLUTE BASOPHIL [3]: 0 CELLS/uL
- ABSOLUTE EOSINOPHIL [3]: 0 CELLS/uL
- ABSOLUTE LYMPHOCYTE [3]: 15419.33 CELLS/uL
- ABSOLUTE MONOCYTE [3]: 122.67 CELLS/uL
- ABSOLUTE SEGMENTED NEUTROPHIL [3]: 2191.33 CELLS/uL
- BASOPHIL [3]: 0%
- EOSINOPHIL [3]: 0%
- ERYTHROCYTE COUNT [3]: 5.84 x10E6/uL
- HEMATOCRIT [3]: 35.27%
- HEMOGLOBIN [3]: 13.6 G/DL
- LEUKOCYTE COUNT [3]: 17.73 x10E3/uL
- LYMPHOCYTE [3]: 87%
- MEAN CORPUSCULAR HEMOGLOBIN [3]: 23.23 pg
- MEAN CORPUSCULAR HEMOGLOBIN CONCENTRATION [3]: 38.57 G/DL
- MEAN CORPUSCULAR VOLUME [3]: 60.37 fL
- MONOCYTE [3]: 0.67%
- NEUTROPHIL [3]: 12.33%
- NUCLEATED RED BLOOD CELLS [3]: 0 /100WBC
- PLATELET COUNT [3]: 1290.67 x10E3/uL
- ALANINE AMINOTRANSFERASE [3]: 45.33 u/L
- ALBUMIN [3]: 3.9 G/DL
- ALKALINE PHOSPHATASE [3]: 319 u/L
- ASPARTATE AMINOTRANSFERASE [3]: 93.67 u/L
- BLOOD UREA NITROGEN [3]: 18.33 mg/dL
- CARBON DIOXIDE [3]: 27.33 mmol/L
- CHLORIDE [3]: 101.67 MEQ/L
- CHOLESTEROL [3]: 75 mg/dL
- CREATINE PHOSPHOKINASE [3]: 321.67 u/L
- CREATININE [3]: 0.19 mg/dL
- GLUCOSE [3]: 140.33 mg/dL
- LACTATE DEHYDROGENASE [3]: 166 u/L
- LIPASE [3]: 9.67 u/L
- PHOSPHORUS [3]: 10.43 mg/dL
- POTASSIUM [3]: 6.56 MEQ/L
- SODIUM [3]: 141.9 MEQ/L
- TOTAL BILIRUBIN [3]: 0.17 mg/dL
- TOTAL PROTEIN [3]: 5.63 G/DL
- URIC ACID [3]: 1.87 mg/dL
